Earlier results on one substance are cited in publication PMC11436104 (Toxins, 2024).

The series relates to rat primary astrocytes. The conditions noted are these: cited from earlier work.

Turning to MC-LF, the “cytotoxicity in rat primary astrocytes” value is given as “selective cytotoxicity”.
